Calls of active or inactive are those of the source. The rule behind the calls is not given here.
Columns and labels:
cells = conditions: Homo sapiens, U373 MG, 72 h
NCI-H460 = assay: Growth inhibition of human NCI-H460 cells at 10 uM by NCI-60 cell inhibition assay; format: functional; conditions: read-out: GI
IGROV-1 = assay: Growth inhibition of human IGROV1 cells at 10 uM by NCI-60 cell inhibition assay; format: functional; conditions: read-out: GI
SNB-75 = assay: Growth inhibition of human SNB75 cells at 10 uM by NCI-60 cell inhibition assay; format: functional; conditions: read-out: GI
NCI-H226 = assay: Growth inhibition of human NCI-H226 cells at 10 uM by NCI-60 cell inhibition assay; format: functional; conditions: read-out: GI
T47D = assay: Growth inhibition of human T47D cells at 10 uM by NCI-60 cell inhibition assay; format: functional; conditions: read-out: GI
HCC 2998 = assay: Growth inhibition of human HCC2998 cells at 10 uM by NCI-60 cell inhibition assay; format: functional; conditions: read-out: GI
SF-268 = assay: Growth inhibition of human SF268 cells at 10 uM by NCI-60 cell inhibition assay; format: functional; conditions: read-out: GI
K562 = assay: Growth inhibition of human K562 cells at 10 uM by NCI-60 cell inhibition assay; format: functional; conditions: read-out: GI
EKVX = assay: Growth inhibition of human EKVX cells at 10 uM by NCI-60 cell inhibition assay; format: functional; conditions: read-out: GI
NCI-H322M = assay: Growth inhibition of human NCI-H322M cells at 10 uM by NCI-60 cell inhibition assay; format: functional; conditions: read-out: GI
OVCAR-5 = assay: Growth inhibition of human OVCAR5 cells at 10 uM by NCI-60 cell inhibition assay; format: functional; conditions: read-out: GI
HT-29 = assay: Growth inhibition of human HT-29 cells at 10 uM by NCI-60 cell inhibition assay; format: functional; conditions: read-out: GI
SN12C = assay: Growth inhibition of human SN12C cells at 10 uM by NCI-60 cell inhibition assay; format: functional; conditions: read-out: GI
[1] = Inhibition of eIF2 protein expression in human U373 cells at 0.5 uM after 4 hrs by Western blotting method; format: functional, cell-based; conditions: U-373MG ATCC
TK-10 = assay: Growth inhibition of human TK10 cells at 10 uM by NCI-60 cell inhibition assay; format: functional; conditions: read-out: GI
ACHN = assay: Growth inhibition of human ACHN cells at 10 uM by NCI-60 cell inhibition assay; format: functional; conditions: read-out: GI
MDA-MB-231 = assay: Growth inhibition of human MDA-MB-231 cells at 10 uM by NCI-60 cell inhibition assay; format: functional; conditions: read-out: GI
Malme-3M = assay: Growth inhibition of human MALME-3M cells at 10 uM by NCI-60 cell inhibition assay; format: functional; conditions: read-out: GI
MCF7 = assay: Growth inhibition of human MCF7 cells at 10 uM by NCI-60 cell inhibition assay; format: functional; conditions: read-out: GI
UACC-257 = assay: Growth inhibition of human UACC257 cells at 10 uM by NCI-60 cell inhibition assay; format: functional; conditions: read-out: GI
T98G = assay: cells; conditions: Homo sapiens, 72 h
HOP-62 = assay: Growth inhibition of human HOP62 cells at 10 uM by NCI-60 cell inhibition assay; format: functional; conditions: read-out: GI
OE33 = assay: Growth inhibition of human OE33 cells after 3 days by MTT assay; format: functional, cell-based; conditions: OE33, 72 h
PC-3 = assay: Growth inhibition of human PC3 cells at 10 uM by NCI-60 cell inhibition assay; format: functional; conditions: read-out: GI
[2] = Growth inhibition of human NCI-ADR-RES cells at 10 uM by NCI-60 cell inhibition assay; format: functional; conditions: read-out: GI
786-0 = assay: Growth inhibition of human 786-0 cells at 10 uM by NCI-60 cell inhibition assay; format: functional; conditions: read-out: GI
MOLT-4 = assay: Growth inhibition of human MOLT4 cells at 10 uM by NCI-60 cell inhibition assay; format: functional; conditions: read-out: GI
KM12 = assay: Growth inhibition of human KM12 cells at 10 uM by NCI-60 cell inhibition assay; format: functional; conditions: read-out: GI
CAKI-1 = assay: Growth inhibition of human Caki1 cells at 10 uM by NCI-60 cell inhibition assay; format: functional; conditions: read-out: GI
SW-620 = assay: Growth inhibition of human SW620 cells at 10 uM by NCI-60 cell inhibition assay; format: functional; conditions: read-out: GI
[3] = Growth inhibition of human […] cells at 10 uM by NCI-60 cell inhibition assay; format: functional; conditions: read-out: GI
MDA-MB-468 = assay: Growth inhibition of human MDA-MB-468 cells at 10 uM by NCI-60 cell inhibition assay; format: functional; conditions: read-out: GI
[4] = Solubility of compound at pH 7.4; format: physicochemical; conditions: buffer, read-out: solubility
Hs 683 = assay: Inhibition of eIF2 activity in human Hs683 cells at 0.5 uM after 4 hrs by Western blotting method; format: functional, cell-based
UACC-62 = assay: Growth inhibition of human UACC62 cells at 10 uM by NCI-60 cell inhibition assay; format: functional; conditions: read-out: GI
A549 = assay: Growth inhibition of human A549/ATCC cells at 10 uM by NCI-60 cell inhibition assay; format: functional; conditions: read-out: GI
SNB-19 = assay: Growth inhibition of human SNB19 cells at 10 uM by NCI-60 cell inhibition assay; format: functional; conditions: read-out: GI
CCRF-CEM = assay: Growth inhibition of human CCRF-CEM cells at 10 uM by NCI-60 cell inhibition assay; format: functional; conditions: read-out: GI
[5] = Inhibition of eIF2 protein expression in human Hs683 cells at 0.5 uM after 4 hrs by Western blotting method; format: functional, cell-based; conditions: Hs 683
NCI-H522 = assay: Growth inhibition of human NCI-H522 cells at 10 uM by NCI-60 cell inhibition assay; format: functional; conditions: read-out: GI
SK-MEL-28 = assay: Growth inhibition of human SK-MEL-28 cells at 10 uM by NCI-60 cell inhibition assay; format: functional; conditions: read-out: GI
SK-MEL-2 = assay: Growth inhibition of human SK-MEL-2 cells at 10 uM by NCI-60 cell inhibition assay; format: functional; conditions: read-out: GI
SK-MEL-5 = assay: Growth inhibition of human SK-MEL-5 cells at 10 uM by NCI-60 cell inhibition assay; format: functional; conditions: read-out: GI
NCI-H23 = assay: Growth inhibition of human NCI-H23 cells at 10 uM by NCI-60 cell inhibition assay; format: functional; conditions: read-out: GI
SR = assay: Growth inhibition of human SR cells at 10 uM by NCI-60 cell inhibition assay; format: functional; conditions: read-out: GI
[6] = Cytostatic activity in human U373 cells at 0.4 uM assessed global growth ratio after 72 hrs by quantitative video microscopy; format: functional, U-373MG ATCC
SF-539 = assay: Growth inhibition of human SF539 cells at 10 uM by NCI-60 cell inhibition assay; format: functional; conditions: read-out: GI
DU-145 = assay: Growth inhibition of human DU145 cells at 10 uM by NCI-60 cell inhibition assay; format: functional; conditions: read-out: GI
UO-31 = assay: Growth inhibition of human UO31 cells at 10 uM by NCI-60 cell inhibition assay; format: functional; conditions: read-out: GI
[7] = Stability in cell culture medium without serum assessed as compound recovery after 72 hrs; format: physicochemical; conditions: read-out: Stability
SF-295 = assay: Growth inhibition of human SF295 cells at 10 uM by NCI-60 cell inhibition assay; format: functional; conditions: read-out: GI

## Cc1c2c(cc[n+]1Cc1ccccc1)c1ccc(OCc3ccccc3)cc1n2Cc1ccccc1.[Br-]
cells
  IC50: 440 nM
NCI-H460
  inhibition of growth at 10 µM: -87.5%
IGROV-1
  inhibition of growth at 10 µM: -65.1%
SNB-75
  inhibition of growth at 10 µM: -18%
NCI-H226
  inhibition of growth at 10 µM: -12%
T47D
  inhibition of growth at 10 µM: -4.02%
HCC 2998
  inhibition of growth at 10 µM: -81.8%
SF-268
  inhibition of growth at 10 µM: -90.4%
K562
  inhibition of growth at 10 µM: -25%
EKVX
  inhibition of growth at 10 µM: -28.8%
NCI-H322M
  inhibition of growth at 10 µM: -26.9%
OVCAR-5
  inhibition of growth at 10 µM: 13.5%
HT-29
  inhibition of growth at 10 µM: -48.6%
SN12C
  inhibition of growth at 10 µM: -86.6%
[1]
  inhibition: Active
TK-10
  inhibition of growth at 10 µM: 11.8%
ACHN
  inhibition of growth at 10 µM: 8.54%
MDA-MB-231
  inhibition of growth at 10 µM: -85.1%
Malme-3M
  inhibition of growth at 10 µM: -73.6%
MCF7
  inhibition of growth at 10 µM: -23.1%
UACC-257
  inhibition of growth at 10 µM: -0.65%
T98G
  IC50: 480 nM
HOP-62
  inhibition of growth at 10 µM: -70.9%
OE33
  IC50: 700 nM
PC-3
  inhibition of growth at 10 µM: -44.8%
[2]
  inhibition of growth at 10 µM: 65%
786-0
  inhibition of growth at 10 µM: -87.4%
MOLT-4
  inhibition of growth at 10 µM: -51%
KM12
  inhibition of growth at 10 µM: -98.4%
CAKI-1
  inhibition of growth at 10 µM: -5.76%
SW-620
  inhibition of growth at 10 µM: -88.1%
[3]
  inhibition of growth at 10 µM: -21.6%
MDA-MB-468
  inhibition of growth at 10 µM: -42.3%
[4]
  solubility: 461 µM
Hs 683
  inhibition: Active
UACC-62
  inhibition of growth at 10 µM: -87.1%
A549
  inhibition of growth at 10 µM: 4.01%
SNB-19
  inhibition of growth at 10 µM: -13.3%
CCRF-CEM
  inhibition of growth at 10 µM: -16.2%
[5]
  inhibition: Active
NCI-H522
  inhibition of growth at 10 µM: -47.1%
SK-MEL-28
  inhibition of growth at 10 µM: -56.5%
SK-MEL-2
  inhibition of growth at 10 µM: -36%
SK-MEL-5
  inhibition of growth at 10 µM: -99.4%
NCI-H23
  inhibition of growth at 10 µM: -12.2%
SR
  inhibition of growth at 10 µM: -52.5%
[6]
  Ratio: 0.4
SF-539
  inhibition of growth at 10 µM: -5.52%
DU-145
  inhibition of growth at 10 µM: -33.6%
UO-31
  inhibition of growth at 10 µM: -18.2%
[7]
  remaining at 72 h: > 95%
SF-295
  inhibition of growth at 10 µM: -69.2%
